Laboratory results as given in the kinase profiling compilation of Christmann-Franck et al. (2016).
“And” between values parts separate entries of the source, which are not always exact repeats. Equal values may be shown once.

Key:
Experiment in all cases: radiometric filter-binding kinase assay, Kinase HotSpot
Conditions in all cases: compound 0.5 µM; ATP 10 µM
ADRBK2 (human) = ADRBK2 (human) (UniProt P35626)
AKT3 (human) = AKT3 (human) (UniProt Q9Y243)
ALK (human) = ALK (human) (UniProt Q9UM73)
CAMK1D (human) = CAMK1D (human) (UniProt Q8IU85)
CDC42BPB (human) = CDC42BPB (human) (UniProt Q9Y5S2)
CDK5 CDK5R1 p35 (human) = CDK5 CDK5R1 p35 (human) (UniProt Q00535+Q15078)
CDK9 CCNT1 (human) = CDK9 CCNT1 (human) (UniProt P50750+O60563)
Sequence of CDK9 CCNT1 (human) (O60563 whole entry, looked up): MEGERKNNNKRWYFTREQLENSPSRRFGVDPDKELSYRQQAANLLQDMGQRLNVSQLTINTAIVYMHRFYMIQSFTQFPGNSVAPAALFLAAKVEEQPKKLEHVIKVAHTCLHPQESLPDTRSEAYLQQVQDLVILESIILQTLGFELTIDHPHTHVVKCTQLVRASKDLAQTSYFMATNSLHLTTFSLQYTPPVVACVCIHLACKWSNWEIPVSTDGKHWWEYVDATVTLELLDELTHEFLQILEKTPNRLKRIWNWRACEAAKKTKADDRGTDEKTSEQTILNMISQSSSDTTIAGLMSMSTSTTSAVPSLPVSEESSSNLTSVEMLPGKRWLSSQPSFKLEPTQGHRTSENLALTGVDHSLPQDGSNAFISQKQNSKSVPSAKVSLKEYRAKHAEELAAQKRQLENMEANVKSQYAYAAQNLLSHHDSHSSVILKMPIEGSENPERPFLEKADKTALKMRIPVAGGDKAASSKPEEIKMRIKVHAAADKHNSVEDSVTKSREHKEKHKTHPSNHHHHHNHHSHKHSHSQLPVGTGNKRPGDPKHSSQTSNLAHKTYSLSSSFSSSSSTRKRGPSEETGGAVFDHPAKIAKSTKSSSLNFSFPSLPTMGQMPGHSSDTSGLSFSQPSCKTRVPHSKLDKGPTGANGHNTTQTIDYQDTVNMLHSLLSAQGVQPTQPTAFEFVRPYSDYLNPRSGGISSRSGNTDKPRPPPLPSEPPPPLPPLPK
Sequence of CDK9 CCNT1 (human) (P50750 whole entry, looked up): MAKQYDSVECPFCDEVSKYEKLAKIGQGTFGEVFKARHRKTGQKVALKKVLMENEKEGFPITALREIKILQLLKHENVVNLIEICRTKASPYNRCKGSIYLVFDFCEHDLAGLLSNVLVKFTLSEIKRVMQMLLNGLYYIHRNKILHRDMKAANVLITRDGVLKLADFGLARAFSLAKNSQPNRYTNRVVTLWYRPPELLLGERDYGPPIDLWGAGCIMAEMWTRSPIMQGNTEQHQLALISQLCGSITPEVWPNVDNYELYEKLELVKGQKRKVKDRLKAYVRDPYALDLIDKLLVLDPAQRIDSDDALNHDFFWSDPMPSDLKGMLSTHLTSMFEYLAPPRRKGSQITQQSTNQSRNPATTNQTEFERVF

CHUK (human) = CHUK (human) (UniProt O15111)
CLK3 (human) = CLK3 (human) (UniProt P49761)
CSNK1E (human) = CSNK1E (human) (UniProt P49674)
EPHA2 (human) = EPHA2 (human) (UniProt P29317)
EPHA5 (human) = EPHA5 (human) (UniProt P54756)
ERBB4 (human) = ERBB4 (human) (UniProt Q15303)
FGFR4 (human) = FGFR4 (human) (UniProt P22455)
GRK4 (human) = GRK4 (human) (UniProt P32298)
Sequence of GRK4 (human) (P32298 whole entry, looked up): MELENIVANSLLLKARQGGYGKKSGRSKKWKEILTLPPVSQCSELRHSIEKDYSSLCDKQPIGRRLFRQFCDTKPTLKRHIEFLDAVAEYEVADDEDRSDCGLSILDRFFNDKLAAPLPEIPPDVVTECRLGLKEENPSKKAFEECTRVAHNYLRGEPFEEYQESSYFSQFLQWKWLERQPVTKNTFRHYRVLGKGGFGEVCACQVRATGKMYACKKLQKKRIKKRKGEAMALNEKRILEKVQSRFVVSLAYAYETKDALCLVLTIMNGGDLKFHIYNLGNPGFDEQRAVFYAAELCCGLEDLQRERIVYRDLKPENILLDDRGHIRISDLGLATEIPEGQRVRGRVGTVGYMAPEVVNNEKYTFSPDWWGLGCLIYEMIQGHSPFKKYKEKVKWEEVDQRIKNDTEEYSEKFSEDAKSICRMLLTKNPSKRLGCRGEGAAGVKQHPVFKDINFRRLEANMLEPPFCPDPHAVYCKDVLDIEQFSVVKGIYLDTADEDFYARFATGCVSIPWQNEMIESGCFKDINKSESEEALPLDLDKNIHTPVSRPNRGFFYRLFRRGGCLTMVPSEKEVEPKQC

HIPK3 (human) = HIPK3 (human) (UniProt Q9H422)
IKBKB (human) = IKBKB (human) (UniProt O14920)
Sequence of IKBKB (human) (O14920 whole entry, looked up): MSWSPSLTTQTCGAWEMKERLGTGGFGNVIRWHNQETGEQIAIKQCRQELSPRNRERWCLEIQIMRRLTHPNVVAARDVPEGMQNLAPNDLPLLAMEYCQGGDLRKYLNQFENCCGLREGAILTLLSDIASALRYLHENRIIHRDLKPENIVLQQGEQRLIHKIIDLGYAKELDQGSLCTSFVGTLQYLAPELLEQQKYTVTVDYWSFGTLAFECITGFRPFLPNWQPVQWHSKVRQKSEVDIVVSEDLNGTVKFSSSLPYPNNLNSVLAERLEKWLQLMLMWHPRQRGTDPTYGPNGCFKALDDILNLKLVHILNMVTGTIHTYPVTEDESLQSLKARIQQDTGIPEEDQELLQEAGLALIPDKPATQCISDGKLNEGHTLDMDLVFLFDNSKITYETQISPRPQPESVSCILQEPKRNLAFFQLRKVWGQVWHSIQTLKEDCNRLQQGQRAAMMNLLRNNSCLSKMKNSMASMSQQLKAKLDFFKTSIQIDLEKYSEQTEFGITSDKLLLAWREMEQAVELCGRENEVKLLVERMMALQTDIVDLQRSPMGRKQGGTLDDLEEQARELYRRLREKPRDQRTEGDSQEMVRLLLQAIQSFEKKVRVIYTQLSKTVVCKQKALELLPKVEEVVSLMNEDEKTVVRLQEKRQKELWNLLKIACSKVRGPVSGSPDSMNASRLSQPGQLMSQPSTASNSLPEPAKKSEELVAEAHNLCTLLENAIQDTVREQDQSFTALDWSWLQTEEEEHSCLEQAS

MAP3K11 (human) = MAP3K11 (human) (UniProt Q16584)
MAPK1 (human) = MAPK1 (human) (UniProt P28482)
Sequence of MAPK1 (human) (P28482 whole entry, looked up): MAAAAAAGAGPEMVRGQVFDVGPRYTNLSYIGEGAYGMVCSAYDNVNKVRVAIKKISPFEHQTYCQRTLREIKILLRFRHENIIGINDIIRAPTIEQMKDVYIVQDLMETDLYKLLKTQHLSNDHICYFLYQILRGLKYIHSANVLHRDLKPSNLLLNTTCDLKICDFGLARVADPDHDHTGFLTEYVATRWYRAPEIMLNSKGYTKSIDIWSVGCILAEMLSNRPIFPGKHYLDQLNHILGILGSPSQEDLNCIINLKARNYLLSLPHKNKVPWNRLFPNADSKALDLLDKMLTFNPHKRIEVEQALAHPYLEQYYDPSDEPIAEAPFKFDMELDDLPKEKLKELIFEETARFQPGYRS

MAPK12 (human) = MAPK12 (human) (UniProt P53778)
MAPK13 (human) = MAPK13 (human) (UniProt O15264)
Sequence of MAPK13 (human) (O15264 whole entry, looked up): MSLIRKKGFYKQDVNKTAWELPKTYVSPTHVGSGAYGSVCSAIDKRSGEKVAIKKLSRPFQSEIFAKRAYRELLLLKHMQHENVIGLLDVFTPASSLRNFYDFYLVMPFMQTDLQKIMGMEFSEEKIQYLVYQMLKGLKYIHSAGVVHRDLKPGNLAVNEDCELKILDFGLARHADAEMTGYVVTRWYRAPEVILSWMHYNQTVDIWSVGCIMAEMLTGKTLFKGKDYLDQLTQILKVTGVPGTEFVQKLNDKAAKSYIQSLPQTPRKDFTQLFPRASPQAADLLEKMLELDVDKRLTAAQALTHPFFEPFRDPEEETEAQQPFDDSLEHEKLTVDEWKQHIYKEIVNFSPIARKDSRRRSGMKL

MAPK3 (human) = MAPK3 (human) (UniProt P27361)
Sequence of MAPK3 (human) (P27361 whole entry, looked up): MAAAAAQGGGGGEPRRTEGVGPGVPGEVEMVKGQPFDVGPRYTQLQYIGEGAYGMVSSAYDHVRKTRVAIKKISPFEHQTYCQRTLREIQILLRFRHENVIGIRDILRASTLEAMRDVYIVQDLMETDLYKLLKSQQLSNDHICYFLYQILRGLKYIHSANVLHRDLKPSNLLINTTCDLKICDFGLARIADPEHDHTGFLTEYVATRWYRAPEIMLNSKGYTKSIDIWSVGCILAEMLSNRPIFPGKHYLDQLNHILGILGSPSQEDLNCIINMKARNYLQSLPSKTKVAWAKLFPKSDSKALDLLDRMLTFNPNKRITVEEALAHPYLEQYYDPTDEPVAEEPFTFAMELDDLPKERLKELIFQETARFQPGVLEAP

MARK4 (human) = MARK4 (human) (UniProt Q96L34)
NLK (human) = NLK (human) (UniProt Q9UBE8)
NTRK1 (human) = NTRK1 (human) (UniProt P04629)
NTRK2 (human) = NTRK2 (human) (UniProt Q16620)
NTRK3 (human) = NTRK3 (human) (UniProt Q16288)
PAK3 (human) = PAK3 (human) (UniProt O75914)
PKN2 (human) = PKN2 (human) (UniProt Q16513)
PRKACA (human) = PRKACA (human) (UniProt P17612)
PRKCE (human) = PRKCE (human) (UniProt Q02156)
Sequence of PRKCE (human) (Q02156 whole entry, looked up): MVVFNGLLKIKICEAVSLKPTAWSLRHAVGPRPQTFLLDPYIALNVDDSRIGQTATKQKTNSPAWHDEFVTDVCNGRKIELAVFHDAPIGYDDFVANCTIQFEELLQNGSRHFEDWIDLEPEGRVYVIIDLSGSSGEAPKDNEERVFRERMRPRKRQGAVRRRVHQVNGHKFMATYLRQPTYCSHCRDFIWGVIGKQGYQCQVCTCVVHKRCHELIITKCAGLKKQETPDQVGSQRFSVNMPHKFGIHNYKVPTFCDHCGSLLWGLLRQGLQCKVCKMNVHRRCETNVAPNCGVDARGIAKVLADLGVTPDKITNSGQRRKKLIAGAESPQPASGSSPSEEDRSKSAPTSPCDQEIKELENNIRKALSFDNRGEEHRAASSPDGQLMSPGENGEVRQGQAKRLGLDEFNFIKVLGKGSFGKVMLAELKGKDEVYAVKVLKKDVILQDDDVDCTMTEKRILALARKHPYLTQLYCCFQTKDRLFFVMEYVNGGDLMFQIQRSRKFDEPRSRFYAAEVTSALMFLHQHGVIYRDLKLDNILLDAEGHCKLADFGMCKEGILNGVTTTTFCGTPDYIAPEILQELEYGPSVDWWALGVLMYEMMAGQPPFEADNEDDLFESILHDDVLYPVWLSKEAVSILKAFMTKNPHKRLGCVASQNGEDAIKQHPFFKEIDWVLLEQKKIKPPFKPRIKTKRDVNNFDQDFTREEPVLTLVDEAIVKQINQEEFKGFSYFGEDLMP

PRKCG (human) = PRKCG (human) (UniProt P05129)
PRKG1 (human) = PRKG1 (human) (UniProt Q13976)
PRKG2 (human) = PRKG2 (human) (UniProt Q13237)
RAF1 (human) = RAF1 (human) (UniProt P04049)
ROCK2 (human) = ROCK2 (human) (UniProt O75116)
STK11 (human) = STK11 (human) (UniProt Q15831)
TGFBR2 (human) = TGFBR2 (human) (UniProt P37173)
TSSK1B (human) = TSSK1B (human) (UniProt Q9BXA7)
ULK1 (human) = ULK1 (human) (UniProt O75385)
WNK3 (human) = WNK3 (human) (UniProt Q9BYP7)
CSNK2A2 (human) = CSNK2A2 (human) (UniProt P19784)

Sequence of ADRBK2 (human) (P35626 whole entry, looked up): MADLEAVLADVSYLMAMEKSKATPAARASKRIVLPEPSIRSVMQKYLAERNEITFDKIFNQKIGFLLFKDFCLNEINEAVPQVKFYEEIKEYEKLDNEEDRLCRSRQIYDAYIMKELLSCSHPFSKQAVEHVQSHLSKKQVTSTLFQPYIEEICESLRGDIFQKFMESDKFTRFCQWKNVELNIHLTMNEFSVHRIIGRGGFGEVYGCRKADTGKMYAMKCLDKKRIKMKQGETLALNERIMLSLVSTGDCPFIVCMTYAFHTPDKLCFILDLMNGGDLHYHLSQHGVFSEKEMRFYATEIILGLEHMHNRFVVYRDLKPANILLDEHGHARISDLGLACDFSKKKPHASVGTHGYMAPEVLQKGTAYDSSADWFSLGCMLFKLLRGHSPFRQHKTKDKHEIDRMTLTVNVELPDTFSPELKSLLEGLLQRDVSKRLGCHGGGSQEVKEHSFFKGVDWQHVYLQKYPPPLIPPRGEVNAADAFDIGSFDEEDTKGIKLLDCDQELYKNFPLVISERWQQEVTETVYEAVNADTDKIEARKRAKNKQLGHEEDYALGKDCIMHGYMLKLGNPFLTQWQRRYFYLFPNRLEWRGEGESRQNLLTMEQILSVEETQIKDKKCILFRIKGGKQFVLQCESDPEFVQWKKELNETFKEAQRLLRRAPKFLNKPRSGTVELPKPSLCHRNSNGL

Structure (SMILES): Nc1ncnc2[nH]nc(Nc3ccc(F)cc3)c12
- residual activity (ADRBK2 (human)): 102%
- residual activity (AKT3 (human)): 104%
- residual activity (ALK (human)): 88.9%
- residual activity (CAMK1D (human)): 130%
- residual activity (CDC42BPB (human)): 106%
- residual activity (CDK5 CDK5R1 p35 (human)): 98.6%
- residual activity (CDK9 CCNT1 (human)): 99.1%
- residual activity (CHUK (human)): 99.5%
- residual activity (CLK3 (human)): 112%
- residual activity (CSNK1E (human)): 80.5%
- residual activity (EPHA2 (human)): 89.9%
- residual activity (EPHA5 (human)): 87%
- residual activity (ERBB4 (human)): 121%
- residual activity (FGFR4 (human)): 107%
- residual activity (GRK4 (human)): 98.8%
- residual activity (HIPK3 (human)): 101%
- residual activity (IKBKB (human)): 105%
- residual activity (MAP3K11 (human)): 93.9%
- residual activity (MAPK1 (human)): 80.8%
- residual activity (MAPK12 (human)): 94.2%
- residual activity (MAPK13 (human)): 104%
- residual activity (MAPK3 (human)): 105%
- residual activity (MARK4 (human)): 99.4%
- residual activity (NLK (human)): 95.4%
- residual activity (NTRK1 (human)): 109%
- residual activity (NTRK2 (human)): 101%
- residual activity (NTRK3 (human)): 81.5%
- residual activity (PAK3 (human)): 104%
- residual activity (PKN2 (human)): 82%
- residual activity (PRKACA (human)): 96.8%
- residual activity (PRKCE (human)): 99.5%
- residual activity (PRKCG (human)): 96%
- residual activity (PRKG1 (human)): 95.7% and 96.9%
- residual activity (PRKG2 (human)): 97%
- residual activity (RAF1 (human)): 96.7%
- residual activity (ROCK2 (human)): 92.1%
- residual activity (STK11 (human)): 97.1%
- residual activity (TGFBR2 (human)): 101%
- residual activity (TSSK1B (human)): 96.4%
- residual activity (ULK1 (human)): 95.6%
- residual activity (WNK3 (human)): 103%

Structure (SMILES): CCCC(=O)Oc1ccc2[nH]c(C(=O)c3cc4ccccc4[nH]3)cc2c1
- residual activity (ADRBK2 (human)): 101%
- residual activity (AKT3 (human)): 101%
- residual activity (ALK (human)): 83.7%
- residual activity (CAMK1D (human)): 103%
- residual activity (CDC42BPB (human)): 99.5%
- residual activity (CDK5 CDK5R1 p35 (human)): 97.5%
- residual activity (CDK9 CCNT1 (human)): 105%
- residual activity (CHUK (human)): 94.5%
- residual activity (CLK3 (human)): 96.9%
- residual activity (CSNK1E (human)): 97.4%
- residual activity (EPHA2 (human)): 99%
- residual activity (EPHA5 (human)): 97.7%
- residual activity (ERBB4 (human)): 99.8%
- residual activity (FGFR4 (human)): 90.9%
- residual activity (GRK4 (human)): 93.7%
- residual activity (HIPK3 (human)): 94.7%
- residual activity (IKBKB (human)): 98.7%
- residual activity (MAP3K11 (human)): 98.7%
- residual activity (MAPK1 (human)): 105%
- residual activity (MAPK12 (human)): 93.7%
- residual activity (MAPK13 (human)): 103%
- residual activity (MAPK3 (human)): 87.9%
- residual activity (MARK4 (human)): 84.1%
- residual activity (NLK (human)): 106%
- residual activity (NTRK1 (human)): 98.6%
- residual activity (NTRK2 (human)): 89.8%
- residual activity (NTRK3 (human)): 95.9%
- residual activity (PAK3 (human)): 102%
- residual activity (PKN2 (human)): 100%
- residual activity (PRKACA (human)): 96.6%
- residual activity (PRKCE (human)): 91%
- residual activity (PRKCG (human)): 99%
- residual activity (PRKG1 (human)): 104% and 95.1%
- residual activity (PRKG2 (human)): 97.6%
- residual activity (RAF1 (human)): 98.7%
- residual activity (ROCK2 (human)): 103%
- residual activity (STK11 (human)): 101%
- residual activity (TGFBR2 (human)): 101%
- residual activity (TSSK1B (human)): 78.1%
- residual activity (ULK1 (human)): 103%
- residual activity (WNK3 (human)): 101%

Structure (SMILES): CNc1cc2c(Nc3cccc(Br)c3)ncnc2cn1
- residual activity (ADRBK2 (human)): 101%
- residual activity (AKT3 (human)): 103%
- residual activity (ALK (human)): 82%
- residual activity (CAMK1D (human)): 92.5%
- residual activity (CDC42BPB (human)): 107%
- residual activity (CDK5 CDK5R1 p35 (human)): 100%
- residual activity (CDK9 CCNT1 (human)): 106%
- residual activity (CHUK (human)): 99%
- residual activity (CLK3 (human)): 87.6%
- residual activity (CSNK1E (human)): 84.8%
- residual activity (EPHA2 (human)): 95.3%
- residual activity (EPHA5 (human)): 106%
- residual activity (ERBB4 (human)): 58.6%
- residual activity (FGFR4 (human)): 93.7%
- residual activity (GRK4 (human)): 98.2%
- residual activity (HIPK3 (human)): 94.1%
- residual activity (IKBKB (human)): 98.2%
- residual activity (MAP3K11 (human)): 96.9%
- residual activity (MAPK1 (human)): 88.6%
- residual activity (MAPK12 (human)): 93.6%
- residual activity (MAPK13 (human)): 102%
- residual activity (MAPK3 (human)): 97.3%
- residual activity (MARK4 (human)): 84.5%
- residual activity (NLK (human)): 84.3%
- residual activity (NTRK1 (human)): 95.9%
- residual activity (NTRK2 (human)): 94.3%
- residual activity (NTRK3 (human)): 72.7%
- residual activity (PAK3 (human)): 98.8%
- residual activity (PKN2 (human)): 102%
- residual activity (PRKACA (human)): 104%
- residual activity (PRKCE (human)): 99.8%
- residual activity (PRKCG (human)): 105%
- residual activity (PRKG1 (human)): 107% and 92.7%
- residual activity (PRKG2 (human)): 102%
- residual activity (RAF1 (human)): 87.8%
- residual activity (ROCK2 (human)): 99.5%
- residual activity (STK11 (human)): 98.3%
- residual activity (TGFBR2 (human)): 105%
- residual activity (TSSK1B (human)): 60.2%
- residual activity (ULK1 (human)): 98.8%
- residual activity (WNK3 (human)): 97.4%

Structure (SMILES): O=S(=O)(c1cccc2cnccc12)N1CCCNCC1
- residual activity (ADRBK2 (human)): 100%
- residual activity (AKT3 (human)): 94.1%
- residual activity (ALK (human)): 119%
- residual activity (CAMK1D (human)): 91.5%
- residual activity (CDK9 CCNT1 (human)): 80.7%
- residual activity (CLK3 (human)): 83.7%
- residual activity (CSNK1E (human)): 99.3%
- residual activity (CSNK2A2 (human)): 91.9%
- residual activity (EPHA2 (human)): 102%
- residual activity (EPHA5 (human)): 90.5%
- residual activity (ERBB4 (human)): 101%
- residual activity (FGFR4 (human)): 82.8%
- residual activity (GRK4 (human)): 104%
- residual activity (HIPK3 (human)): 107%
- residual activity (MAP3K11 (human)): 99.7%
- residual activity (MAPK1 (human)): 98.1%
- residual activity (MAPK12 (human)): 99.3%
- residual activity (MAPK13 (human)): 98.8%
- residual activity (MAPK3 (human)): 96.1%
- residual activity (MARK4 (human)): 103%
- residual activity (NLK (human)): 97.3%
- residual activity (NTRK1 (human)): 89.6%
- residual activity (NTRK2 (human)): 102%
- residual activity (NTRK3 (human)): 85.5%
- residual activity (PAK3 (human)): 103%
- residual activity (PKN2 (human)): 103%
- residual activity (PRKCE (human)): 76.5%
- residual activity (PRKCG (human)): 110%
- residual activity (PRKG1 (human)): 79.6% and 87.7%
- residual activity (PRKG2 (human)): 98.9%
- residual activity (RAF1 (human)): 98.3%
- residual activity (STK11 (human)): 97.6%
- residual activity (TGFBR2 (human)): 97%
- residual activity (TSSK1B (human)): 93.5%
- residual activity (ULK1 (human)): 103%
- residual activity (WNK3 (human)): 98.1%

Structure (SMILES): CCN(CC)CCNC(=O)c1c(C)[nH]c(/C=C2\C(=O)Nc3ccc(F)cc32)c1C
- residual activity (ADRBK2 (human)): 94.8%
- residual activity (AKT3 (human)): 71.7%
- residual activity (ALK (human)): 16.6%
- residual activity (CDC42BPB (human)): 101%
- residual activity (CDK9 CCNT1 (human)): 88.7%
- residual activity (CHUK (human)): 92.4%
- residual activity (CLK3 (human)): 105%
- residual activity (CSNK1E (human)): 46.9%
- residual activity (CSNK2A2 (human)): 92.2%
- residual activity (EPHA2 (human)): 83.6%
- residual activity (EPHA5 (human)): 87.6%
- residual activity (ERBB4 (human)): 94.8%
- residual activity (FGFR4 (human)): 92.5%
- residual activity (GRK4 (human)): 75.8%
- residual activity (HIPK3 (human)): 47.3%
- residual activity (IKBKB (human)): 81%
- residual activity (MAP3K11 (human)): 68.4%
- residual activity (MAPK1 (human)): 98.5%
- residual activity (MAPK12 (human)): 95.8%
- residual activity (MAPK13 (human)): 92.4%
- residual activity (MARK4 (human)): 24.7%
- residual activity (NLK (human)): 105%
- residual activity (NTRK1 (human)): 11.5%
- residual activity (NTRK2 (human)): 9.78%
- residual activity (PKN2 (human)): 89.1%
- residual activity (PRKACA (human)): 89.1%
- residual activity (PRKCE (human)): 98%
- residual activity (PRKCG (human)): 83.8%
- residual activity (PRKG1 (human)): 65.3% and 88.8%
- residual activity (PRKG2 (human)): 96.1%
- residual activity (RAF1 (human)): 110%
- residual activity (ROCK2 (human)): 72.1%
- residual activity (STK11 (human)): 97.2%
- residual activity (TGFBR2 (human)): 92.5%
- residual activity (TSSK1B (human)): 20.7%
- residual activity (ULK1 (human)): 16.3%
- residual activity (WNK3 (human)): 94.3%
